In patent US11974976B2, “Animal feeds and feed premixes containing betaine hydrochloride and a phytase” (Rural Chemical Industries (AUST) PTY LTD, priority 2013, dated 2024):
Counter-ions that a name gives are not always drawn. Marks after values point to notes of the source that are not given here.

What was measured:
male Ross 308 chicks [1] = assay: Bone mineralisation (percentage toe ash); format: in vivo, broiler chicks; details: phytase 500 FTU/kg, betaine 2.75 g/kg
Experimental: (§1) The composition and nutrient specifications of the three basal starter (1-16 days post-hatch) and finisher (17-37 days post-hatch) diets are shown in Table 1. An NSP-degrading enzyme (Econase XT) was included across all the wheat-based diets to reflect standard practice and the finisher diets contained 20 g/kg Celite as an acid insoluble ash dietary marker. The starter diets were fed as mash, while the finisher diets were steam-pelleted at a conditioning temperature of 85° C. The NC1 diets were the ‘phytase-modified’ diets with formulated with reductions of 1.4 g/kg Ca and 1.5 g/kg P in the starter diets, which mainly stemmed from the elimination of dicalcium phosphate. The corresponding reductions in the finisher diets were 1.2 g/kg Ca and 1.4/kg P. The NC2 diets were the ‘betaine-modified’ diets in which energy density, methionine and choline levels were reduced mainly by lower inclusion levels of canola oil and synthetic methionine and the elimination of choline chloride relative to the PC diets. The energy densities were reduced from 12.55 to 12.24 MJ/kg in the starter diets and from 12.97 to 12.66 MJ/kg in the finisher diets. Methionine levels were reduced from 4.44 to 3.19 g/kg in the starter diets and from 4.18 to 2.93 g/kg in the finisher diets. Exogenous phytase (Quantum® Blue; AB Vista) was included in the relevant diets at 100 g per tonne or 500 FTU/kg phytase activity and, similarly, betaine HCl (Hi Beta″, 970 g/kg betaine hydrochloride; Rural Chemical Industries) was included in the diets at 2.75 g/kg.
(§2) The parameters evaluated included growth performance (weight gains, feed intakes, feed conversion ratios; FCR) from 1 to 16, 17 to 37 and 1 to 37 days post-hatch, 1 to 37 days weight gain-corrected FCR, mortality/cull rates, percentage toe ash, nitrogen (N) excretion and nutrient utilisation. Nutrient utilisation included apparent metabolisable energy (AME), expressed as both MJ/kg and MJ/day, N retention and N-corrected AME (AMEn). Also, breast weights in absolute and relative (% yield) terms, abdominal fat pad weights and pH of gizzard contents were determined. However, for reasons of practical expediency, absolute breast weights were determined on a ‘bone-in’ basis from birds that had not been de-feathered and this approach inflates both the absolute weight and yield; nevertheless, the data remains indicative. The experimental data was obtained and calculated via standard procedures followed by the Poultry Research Foundation. While the various procedures are not detailed in this report the majority of them have been described in detail (Selle et al., 2003b) previously.
(§3) The experimental data was statistically analysed as a 3×2×2 factorial array of dietary treatments. […]

male Ross 308 chicks [2] = assay: Mortality/cull rates to 37 days post-hatch; details: phytase 500 FTU/kg, betaine 2.75 g/kg
Experimental: as §1, §2, §3

male Ross 308 chicks [3] = assay: Growth performance of broilers (weight gain, feed intake, feed conversion); format: in vivo, broiler chicks; details: for Feed efficiency: feed conversion ratio; for Feed efficiency / Feed intake / Weight gain / Gain-corrected FCR: phytase 500 FTU/kg, betaine 2.75 g/kg
Experimental: as §1, §2
The experimental data was statistically analysed as a 3×2×2 factorial array of dietary treatments. That is diet type (PC, NC1, NC2), without and with the addition of phytase, without and with the addition of betaine HCl. Each of the 12 dietary treatments was offered to 8 replicate cages of 6 birds or a total of 96 cages and 576 birds (male Ross 308 chicks). The IBM® SPSS® Statistics 20 program was used to analyse experimental data and the study complied with specific guidelines of the Animal Ethics Committee of Sydney University.

[4] = NC1 diets, 1 to 16 days post-hatch
[5] = NC1 diets, 1 to 37 days post-hatch
[6] = NC1 diets, 17 to 37 days post-hatch
[7] = NC2 diets, 1 to 16 days post-hatch
[8] = NC2 diets, 1 to 37 days post-hatch
[9] = NC2 diets, 17 to 37 days post-hatch
[10] = PC diets, 1 to 16 days post-hatch
[11] = PC diets, 1 to 37 days post-hatch
[12] = PC diets, 17 to 37 days post-hatch
[13] = main effect across diets, 1 to 16 days post-hatch
[14] = main effect across diets, 1 to 37 days post-hatch
[15] = main effect across diets, 17 to 37 days post-hatch
[16] = main effect, 17 to 37 days (finisher phase)

In the case of C[N+](C)(C)CC(=O)O [Betaine, betaine hydrochloride], the Toe ash (male Ross 308 chicks [1]; NC1 diets) is reported as 11.15%, the Toe ash (male Ross 308 chicks [1]; NC2 diets) is reported as 12.29% and the Toe ash (male Ross 308 chicks [1]; PC diets) is reported as 11.99%. The Toe ash (male Ross 308 chicks [1]; main effect across diets) was 12.07%, the “Mortality and cull rates” value (male Ross 308 chicks [2]; NC1 diets) was 4.18% and the “Mortality and cull rates” value (male Ross 308 chicks [2]; NC2 diets) was 6.25%. For the same compound, the “Mortality and cull rates” value (male Ross 308 chicks [2]; PC diets) was 4.18%, the “Mortality and cull rates” value (male Ross 308 chicks [2]; main effect across diets) was 4.17% and the “Weight gain, phytase x betaine interaction mean” value (male Ross 308 chicks [3]; 1 to 37 days, across diet types) was 2202 g/bird. For the same compound, the “Weight gain, phytase x betaine interaction mean” value (male Ross 308 chicks [3]; 17 to 37 days, across diet types) was 1797 g/bird, the “Depression of weight gain versus non-supplemented diets” value (male Ross 308 chicks [3]; 17 to 37 days, betaine HCl alone, across diet types) was 7.70% and the Feed efficiency (male Ross 308 chicks [3]; [4]) was 1.414. For the same compound, the Feed intake (male Ross 308 chicks [3]; [4]) was 556 g/bird, the Weight gain (male Ross 308 chicks [3]; [4]) was 395 g/bird and the “Weight gain, two-way interaction mean (diet type x additive)” value (male Ross 308 chicks [3]; NC1 diets, 1 to 37 days) was 2437 g/bird. For the same compound, the Feed efficiency (male Ross 308 chicks [3]; [5]) was 1.732, the Feed intake (male Ross 308 chicks [3]; [5]) was 3478 g/bird and the Weight gain (male Ross 308 chicks [3]; [5]) was 2012 g/bird. The “Gain-corrected FCR” value (male Ross 308 chicks [3]; NC1 diets, 1 to 37 days) was 1.858 g/g, the “Increase in weight gain on addition to diet” value (male Ross 308 chicks [3]; NC1 diets, 1 to 37 days, two-way interaction) was 0.61% and the “Weight gain, two-way interaction mean (diet type x additive)” value (male Ross 308 chicks [3]; NC1 diets, 17 to 37 days) was 1737 g/bird. For the same compound, the Feed efficiency (male Ross 308 chicks [3]; [6]) was 1.811, the Feed intake (male Ross 308 chicks [3]; [6]) was 2923 g/bird and the Weight gain (male Ross 308 chicks [3]; [6]) was 1618 g/bird. For the same compound, the Feed efficiency (male Ross 308 chicks [3]; [7]) was 1.394, the Feed intake (male Ross 308 chicks [3]; [7]) was 523 g/bird and the Weight gain (male Ross 308 chicks [3]; [7]) was 377 g/bird. For the same compound, the Feed efficiency (male Ross 308 chicks [3]; [8]) was 1.641, the Feed intake (male Ross 308 chicks [3]; [8]) was 3728 g/bird and the Weight gain (male Ross 308 chicks [3]; [8]) was 2272 g/bird. For the same compound, the “Gain-corrected FCR” value (male Ross 308 chicks [3]; NC2 diets, 1 to 37 days) was 1.663 g/g, the “Depression of weight gain on addition to diet” value (“Depression … to diet” for short) (male Ross 308 chicks [3]; NC2 diets, 1 to 37 days, two-way interaction) was 5.29% and the Feed efficiency (male Ross 308 chicks [3]; [9]) was 1.691. The Feed intake (male Ross 308 chicks [3]; [9]) was 3205 g/bird, the Weight gain (male Ross 308 chicks [3]; [9]) was 1896 g/bird and the “Depression … to diet” value (male Ross 308 chicks [3]; NC2 diets, 17 to 37 days, two-way interaction) was 6.27%. The Feed efficiency (male Ross 308 chicks [3]; [10]) was 1.334, the Feed intake (male Ross 308 chicks [3]; [10]) was 591 g/bird and the Weight gain (male Ross 308 chicks [3]; [10]) was 444 g/bird. It also gave a Feed efficiency (male Ross 308 chicks [3]; [11]) of 1.601, a Feed intake (male Ross 308 chicks [3]; [11]) of 3714 g/bird and a Weight gain (male Ross 308 chicks [3]; [11]) of 2321 g/bird. For the same compound, the “Gain-corrected FCR” value (male Ross 308 chicks [3]; PC diets, 1 to 37 days) was 1.604 g/g, the “Depression … to diet” value (male Ross 308 chicks [3]; PC diets, 1 to 37 days, two-way interaction) was 4.90% and the Feed efficiency (male Ross 308 chicks [3]; [12]) was 1.665. The Feed intake (male Ross 308 chicks [3]; [12]) was 3123 g/bird, the Weight gain (male Ross 308 chicks [3]; [12]) was 1878 g/bird and the “Depression … to diet” value (male Ross 308 chicks [3]; PC diets, 17 to 37 days, two-way interaction) was 6.35%. For the same compound, the Feed efficiency (male Ross 308 chicks [3]; main effect across diets, 1 to 16 days post-hatch, hydrochloride) was 1.380^b, the Feed efficiency (male Ross 308 chicks [3]; main effect across diets, 1 to 16 days post-hatch, listed as Betaine HCl, hydrochloride) was 1.380 and the Feed intake (male Ross 308 chicks [3]; [13]) was 567 g/bird. The Weight gain (male Ross 308 chicks [3]; [13]) was 413 g/bird, the Feed efficiency (male Ross 308 chicks [3]; main effect across diets, 1 to 37 days post-hatch, hydrochloride) was 1.647 and the Feed efficiency (male Ross 308 chicks [3]; main effect across diets, 1 to 37 days post-hatch, listed as betaine HCl, hydrochloride) was “no significant impact”. The Feed intake (male Ross 308 chicks [3]; [14]) was 3756 g/bird, the Weight gain (male Ross 308 chicks [3]; [14]) was 2288 g/bird and the “Gain-corrected FCR” value (male Ross 308 chicks [3]; main effect across diets, 1 to 37 days, hydrochloride) was 1.663^a g/g. The “Gain-corrected FCR” value (male Ross 308 chicks [3]; main effect across diets, 1 to 37 days, listed as betaine HCl, hydrochloride) was 1.663 g/g, the Feed efficiency (male Ross 308 chicks [3]; main effect across diets, 17 to 37 days post-hatch, hydrochloride) was 1.707^b and the Feed efficiency (male Ross 308 chicks [3]; main effect across diets, 17 to 37 days post-hatch, listed as betaine HCl, hydrochloride) was 1.707. For the same compound, the Feed intake (male Ross 308 chicks [3]; [15]) was 3189 g/bird, the Weight gain (male Ross 308 chicks [3]; [15]) was 1875^a g/bird and the “Depression of gain-corrected FCR” value (male Ross 308 chicks [3]; main effect, 1 to 37 days) was 3.42%. For the same compound, the “Depression of feed efficiency” value (male Ross 308 chicks [3]; [16]) was 2.46%, the “Depression of weight gain” value (male Ross 308 chicks [3]; [16]) was 4.48% and the “Depression of growth rates” value (male Ross 308 chicks [3]; main effect, entire feeding period) was 3.38%. For the same compound, the “Improvement in feed efficiency (FCR)” value (male Ross 308 chicks [3]; main effect, starter phase, 1 to 16 days post-hatch) was 3.77%.
